Assay results reported in patent publication US9151761B2, “Predictive biomarker of survival in the treatment of renal cell carcinoma” (Amgen Inc., priority 2011, dated 2015).

Test system: advanced clear cell carcinoma of the kidney
Experiment: Phase 2 study of AMG 386 plus sorafenib: progression free survival by baseline serum PLGF above vs below the median (28 pg/mL)
Type: in vivo, human
Conditions: sorafenib only, 400 mg PO BID (placebo AMG 386), FIG. 4
Description: FIGS. 1-4 are Kaplan-Meier plots showing progression free survival differences between subjects with patient PLGF concentrations above and below the median PLGF concentration parameter (28 pg/mL). 123 patients total with 43 patients administered AMG 386 at 10 mg/kg, 39 patients at 3 mg/kg, and 41 patients at 0 mg/kg. All patients were also dosed with 400 mg sorafenib orally, twice a day. […]
The number of patients to be enrolled was approximately 150. […] The primary outcome measured was PFS while the secondary outcome included objective response rate, duration of response, and change in continuous measures of tumor burden.
Renal cancer patient's circulating levels of protein placental growth factor (PLGF) was analyzed along with a number of other analytes to determine if it was predictive of how well they will respond after treatment with AMG 386 and sorafenib. […] The baseline patient PLGF concentration was analyzed to determine if it was informative of how well the patient would respond to the treatment regimens.
The patients PLGF concentrations were determined and tested for statistical association with progression free survival (PFS) time. […] Predictive significance was determined with a Cox proportional hazards model of PFS with the factors PLGF, cohort, and the interaction between PLGF and cohort. […]

Compound: CNC(=O)c1cc(Oc2ccc(NC(=O)Nc3ccc(Cl)c(C(F)(F)F)c3)cc2)ccn1 [sorafenib]
- Cox proportional hazard ratio (HR) of progression free survival, patient PLGF above vs below median (41 patients (23 above, 18 below)): 0.83
- difference in median survival, patient PLGF above vs below median (41 patients): 1 days
